Test results taken from patent US10294226B2, “Small molecule inhibitors of the JAK family of kinases” (Janssen Pharmaceutica NV, priority 2016, dated 2019).
Converted amounts (≈) assume the structure as drawn. Where two headings read alike, the source gives them in different places.

Legend:
[1] = In vivo oral (p.o.) dosing, plasma and colon concentrations (Protocols 1 and 2); design: species or system female C57BL/6 mice; conditions: mice, 25 mg/kg p.o.
Method: These protocols are described below under the heading In vivo Studies. Three non-fasted female C57BL/6 mice were orally administered test compound at a dose of 25 mg/kg p.o. as a solution in 20% hydroxypropyl-beta-cyclodextrin (HPβCD) at a dose volume of 5 mL/kg. Blood samples were collected at 0.5, 2, and 4 h post dose via retro-orbital bleed or venipuncture of the dorsal metatarsal vein. Blood samples were collected into tubes containing anticoagulant (Heparin-Na) and placed on wet ice. […] Colon samples were collected at 4 h post dose. […] The colon was further washed by putting it in 5 mL of saline and shaken for 5 seconds. The colon sample was then patted dry, weighed, and homogenized as 1 part tissue (g) to 4 parts HPLC grade water (mL). Concentrations of the compound in plasma and colon homogenate were determined using a qualified liquid chromatography-triple quadrupole mass spectrometry (LC-MS/MS) method. […] Three non-fasted female C57BL/6 mice were orally administered test compound at a dose of 25 mg/kg p.o. as a solution in 20% HPβCD at a dose volume of 5 mL/kg. Blood samples were collected at 0.5, 2, and 4 h post dose via retro-orbital bleed or dorsal metatarsal vein. Blood samples were collected into tubes containing anticoagulant (Heparin-Na) and placed on wet ice. […] Colon samples were collected at 4 h post dose. […] The colon was further washed by putting it in 5 mL of saline and shaken for 5 seconds. The colon sample was then patted dry, weighed, and homogenized as 1 part tissue (g) to 4 parts HPLC grade water (mL). Concentrations of the compound in plasma and colon homogenate were determined using a qualified liquid chromatography-triple quadrupole mass spectrometry (LC-MS/MS) method.

[2] = MDCK-MDR1 permeability assay; assay type: in vitro ADME; conditions: MDCK-MDR1, pH 7.4, @ 5 μM, apical to basolateral, with P-gp inhibitor elacridar (2 μM); read-out: MDCK-MDR1 P^eapp(A-B)
Method: (§5) Permeability measurements were conducted according to the Cyprotex protocol using the MDCK-MDR1 cell line obtained from the NIH (Rockville, Md., USA). […] The cells in this assay form a cohesive sheet of a single cell layer filing the surface area of the culture dish, also known as a confluent monolayer, and on day four the test compound was added to the apical side of the membrane and the transport of the compound across the monolayer was monitored over a time period of 60 min.
(§6) Test compounds were dissolved in DMSO at a concentration of 10 mM. The dosing solutions were prepared by diluting test compound with assay buffer (Hanks Balanced Salt Solution), pH 7.4, at a final concentration of 5 μM. For assessment of apical to basolateral (“A-B”) permeability, buffer was removed from the apical compartment and replaced with test compound dosing solution with or without the permeability glycoprotein (“PgP”, “P-gP”, “Pgp” or “P-gp”) inhibitor elacridar (2 μM). For assessment of basolateral to apical (“B-A”) permeability, buffer was removed from the companion plate and replaced with test compound dosing solution. Incubations were carried out in duplicate at 37° C. in an atmosphere of 5% CO2 with a relative humidity of 95%. […] After incubation for 60 minutes, apical and basolateral samples were diluted and test compounds quantified by LC/MS/MS using an 8-point calibration in the range 0.0039 to 3 μM with appropriate dilution of the samples (receiver dilution factor=1; donor and C0 dilution factor=10). The permeability coefficient (Papp) for each compound was calculated from the following equation: Papp=(dQ/dt)/(C0×S), where dQ/dt is the rate of permeation of the drug across the cells, C0 is the donor compartment concentration at time zero, and S is the area of the cell monolayer.
(§7) The percent recovery was measured for all incubation conditions.
(§8) Papp(A-B) gives an indication of permeation extent across the cells in this assay, which is envisaged to model the transcellular transport across Pgp-expressing cells, such as Pgp-expressing gastrointestinal tract cells.
(§9) The integrity of each monolayer was monitored by examining the permeation of lucifer yellow by fluorimetric analysis.

P-gp (MDR1) = test: MDCK-MDR1 permeability assay; assay type: in vitro ADME; conditions: dog; for Papp A→B at 60 min, 5 μM: apical to basolateral; for Papp B→A at 60 min, 5 μM: MDCK-MDR1, pH 7.4, basolateral to apical; for efflux ratio at 60 min, 5 μM: pH 7.4, MDCK-MDR1, @ 5 μM, read-out: Papp(B-A)/Papp(A-B) efflux ratio
Method: as §5, §6, §7, §8, §9

physchem = conditions: thermodynamic from solid
JAK1-JH1JH2 = JAK1-JH1JH2 (Homo sapiens (Human), UniProt P23458); test: Enzymatic inhibition assay (HTMS); assay type: biochemical; conditions: 12.5 μM ATP; read-out: JAK1_JH1JH2 IC50
Chain of JAK1-JH1JH2 (P23458 574-1154): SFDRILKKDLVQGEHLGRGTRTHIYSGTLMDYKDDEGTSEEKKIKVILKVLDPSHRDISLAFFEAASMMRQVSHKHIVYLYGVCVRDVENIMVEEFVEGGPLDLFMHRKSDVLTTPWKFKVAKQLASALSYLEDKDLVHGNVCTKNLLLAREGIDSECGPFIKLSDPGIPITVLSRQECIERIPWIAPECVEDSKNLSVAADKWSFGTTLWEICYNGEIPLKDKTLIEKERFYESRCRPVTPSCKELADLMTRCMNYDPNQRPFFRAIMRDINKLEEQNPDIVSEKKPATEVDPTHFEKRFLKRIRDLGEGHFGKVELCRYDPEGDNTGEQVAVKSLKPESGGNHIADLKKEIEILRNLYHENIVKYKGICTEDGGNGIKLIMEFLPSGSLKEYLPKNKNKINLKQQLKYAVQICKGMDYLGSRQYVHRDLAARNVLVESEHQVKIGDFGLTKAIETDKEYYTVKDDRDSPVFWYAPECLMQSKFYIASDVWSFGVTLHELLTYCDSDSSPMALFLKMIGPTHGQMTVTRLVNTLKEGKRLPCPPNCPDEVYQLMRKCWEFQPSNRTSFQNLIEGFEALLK
Source text: (§1) JAK1-JH1JH2 (574-1154 with a His-GST Tag and a C-terminal tev (ENLYFQ-G) cleavage site), JAK3-JH1JH2 (512-1124 with a GST Tag and a C-terminal tev (ENLYFQ-G) cleavage site), and Tyk2-JH1JH2 (8H_tev_580-1182-C936A-C1142A with a C-terminal tev (ENLYFQ-G) cleavage site) were purified internally. […] LC/MS grade water and acetonitrile (ACN), were purchased from HoneyWell, Burdick & Jackson (Muskegon, Mich., USA). Dimethylsulfoxide 99.8% (DMSO) and trifluoroacetic acid 99.5% (TFA) were purchased from EMD Chemical (Gibbstown, N.J., USA). Adenosine triphosphate (ATP), 4-morpholinepropanesulfonic acid (MOPS), magnesium chloride (MgCl2), ethylenediaminetetraacetic acid (EDTA), dithiothreitol (DTT), formic acid>95% (FA) and Tween-20 were purchased from Sigma (St Louis, Mo., USA). 384-well polypropylene plates, Cat#781280 were purchased from Greiner (Monroe, N.C.), RapidFire™ cartridge A C4 Column (Agilent Technologies, Santa Clara, Calif.).
(§2) The HTMS experiments were performed in positive ionization mode on a RapidFire 300 instrument (Agilent Technologies, Santa Clara, Calif.), coupled with an ABSiex QTrap 4000 system with an Electrospray Ionization source (RF-MS) (Concord, ON, Canada). […] The entire system was operated using the RapidFire software interfaced with Analyst software for the mass spectrometer.
(§3) 11-point dosing series were made for each compound by serially diluting 1:3 or 1:4 in DMSO, with point 12 being a DMSO control. From the serial dilution plates, sample was transferred to a 384 wells assay plate (#781280, Greiner, Monroe, N.C.) using Labcyte Echo (Sunnyvale, Calif.), or Biosero ATS (San Diego, Calif.). The compounds were tested in duplicate. Column 12 was used for positive controls, and column 24 contained negative controls with no enzyme added. A compound from our internal collection, with inhibitory activity for JAK isoforms, was used as a reference compound. The final concentration of DMSO was ≤0.25% in a 20 μL reaction. The enzyme reaction was initiated by the addition of 10 μL of enzyme and ATP mixture to 10 μL of substrate solution prepared in reaction buffer (50 mM MOPS pH 7.5, 10 mM MgCl2, 1 mM EDTA, 2 mM DTT, 0.002% Tween-20). The Tyk2 enzyme was pre-incubated with 2 mM ATP for 30 min prior to the reaction initiation. Immediately after the addition of the enzyme to the reaction mixture, the plate was centrifuged at 1000 rpm for 1 minute and incubated at 25° C. for 45 minutes for JAK3 and 90 minutes for JAK1, JAK2 and Tyk2. The reaction was quenched by the addition of 20 μL of 0.5% TFA containing 0.15 μM of internal standard peptide using Multidrop Combi reagent dispenser (Thermo Scientific, Waltham, Mass.). […] After the quench, the assay plate was centrifuged at 3000 rpm for 3 minutes and sealed with pierceable aluminum foil (Cat#06644-001, Agilent) using a PlateLoc (Agilent Technologies, Santa Clara, Calif.). The plates then were transferred on to the RapidFire for the MS analysis. Compound inhibition was assessed by a decrease of the phosphorylated product levels in sample wells compared to the non-inhibited enzyme reaction.
(§4) The sample analysis on the RapidFire was performed using a mobile phase A1 consisting of Water/TFA/FA (100:0.01:0.1, v/v/v), a mobile phase B1 consisting of ACN/Water/TFA/FA (80:20:0.01:0.1, v/v/v). […] The samples were aspirated directly from the 384-well assay plate and delivered onto RF-MS microscale solid-phase C4 extraction cartridge (Type A). The undesired component such as salt, cofactor, detergent and large protein were washed out and the retained analytes (substrate, product and IS) were coeluted directly onto the AB Siex Qtrap 4000 system.

JAK3-JH1JH2 = JAK3-JH1JH2 (Homo sapiens (Human), UniProt P52333); test: Enzymatic inhibition assay (HTMS); assay type: biochemical; conditions: 150 μM ATP; read-out: JAK3_I_JH1JH2 IC50
Chain of JAK3-JH1JH2 (P52333 512-1124): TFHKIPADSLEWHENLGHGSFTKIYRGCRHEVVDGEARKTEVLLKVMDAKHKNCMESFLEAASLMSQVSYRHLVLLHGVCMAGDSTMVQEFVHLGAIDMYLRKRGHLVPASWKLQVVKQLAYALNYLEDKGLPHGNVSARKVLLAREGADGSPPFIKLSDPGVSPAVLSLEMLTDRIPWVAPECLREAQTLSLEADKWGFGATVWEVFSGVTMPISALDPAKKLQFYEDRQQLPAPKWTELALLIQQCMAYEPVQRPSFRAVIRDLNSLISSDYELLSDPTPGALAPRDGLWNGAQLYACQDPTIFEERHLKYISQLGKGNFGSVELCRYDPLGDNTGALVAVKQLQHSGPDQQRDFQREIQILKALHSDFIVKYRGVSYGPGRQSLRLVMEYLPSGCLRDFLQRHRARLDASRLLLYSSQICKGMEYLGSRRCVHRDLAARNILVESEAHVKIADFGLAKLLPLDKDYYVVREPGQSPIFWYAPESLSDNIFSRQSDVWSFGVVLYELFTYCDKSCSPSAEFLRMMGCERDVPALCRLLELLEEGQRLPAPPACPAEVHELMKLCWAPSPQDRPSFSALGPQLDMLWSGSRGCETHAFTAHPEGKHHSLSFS
Source text: as §1, §2, §3, §4

Tyk2-JH1JH2 = Tyk2-JH1JH2 (Homo sapiens (Human), UniProt P29597, C1142A/C936A); test: Enzymatic inhibition assay (HTMS); assay type: biochemical; conditions: 50 μM ATP; read-out: Tyk2_I_JH1JH2 IC50
Chain of Tyk2-JH1JH2 (P29597 580-1182 C936A/C1142A): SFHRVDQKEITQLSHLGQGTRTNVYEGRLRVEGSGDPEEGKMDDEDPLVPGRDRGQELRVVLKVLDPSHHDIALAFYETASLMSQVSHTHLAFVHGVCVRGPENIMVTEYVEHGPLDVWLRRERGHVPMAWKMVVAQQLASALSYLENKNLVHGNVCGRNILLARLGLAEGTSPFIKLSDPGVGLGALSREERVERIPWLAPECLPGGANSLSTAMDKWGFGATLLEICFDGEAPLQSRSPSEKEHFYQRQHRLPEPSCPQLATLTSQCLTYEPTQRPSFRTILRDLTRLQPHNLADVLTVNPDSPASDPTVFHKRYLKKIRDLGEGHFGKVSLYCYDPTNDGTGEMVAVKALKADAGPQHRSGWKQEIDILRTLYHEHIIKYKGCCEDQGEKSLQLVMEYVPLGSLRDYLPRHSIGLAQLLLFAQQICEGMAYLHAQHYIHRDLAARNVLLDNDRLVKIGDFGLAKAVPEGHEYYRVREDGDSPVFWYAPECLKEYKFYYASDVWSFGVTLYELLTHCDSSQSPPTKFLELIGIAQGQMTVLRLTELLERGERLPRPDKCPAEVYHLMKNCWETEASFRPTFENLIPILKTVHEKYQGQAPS
Source text: as §1, §2, §3, §4

IL-2 pSTAT5 (JAK1/JAK3) = IL-2 pSTAT5 (JAK1/JAK3) cellular assay, AlphaLISA in PBMCs; assay type: cell-based; conditions: PBMC, IL-2 5 ng/mL
Method: The AlphaLISA assay (based on Alpha Technology from PerkinElmer) was performed by first plating freshly thawed PBMCs (Biological Specialty Corporation) in 384-well plates at 30,000 cells per 4 μL per well in HBSS (Hanks' Balanced Salt Solution) containing 0.1% IgG (immunoglobulin G)-free, protease-free BSA (bovine serum albumin) (Jackson ImmunoResearch Cat. No. 001-000-161). The cells were then treated with 2 μL/well of compounds diluted in DMSO at half-log titrated concentrations, with a highest test concentration of 10 μM and 0.5% final DMSO concentration, for thirty minutes at 37° C. […] The cellular reactions were terminated by the addition of 2 μL/well of lysis buffer (PerkinElmer Cat. No. ALSU-PST5-A10K) followed by an incubation of five minutes at room temperature. 5 μL/well of acceptor mix (PerkinElmer Cat. No. ALSU-PST5-A10K) was added to the cells and incubated in the dark for one hour at room temperature. Then, 5 μL/well of donor mix (PerkinElmer Cat. No. ALSU-PST5-A10K) was added to the cells and incubated in the dark overnight at room temperature. Finally, the plates were read on a PerkinElmer EnVision for detection of the time-resolved fluorescence signal. The percentage of IL-2-dependent pSTAT5 inhibition was determined at the compound test concentrations; and for each compound, a dose curve was generated and the IC50 was calculated. Compound IC50 was calculated by nonlinear regression, sigmoidal dose response analysis of the half-log dilution titration curve of the compound concentration vs. Alpha signal. The acronym “Alpha” stands for amplified luminescent proximity homogeneous assay; the Alpha signal is a luminescent/fluorescent signal.

IFNα pSTAT4 (JAK1/TYK2) = IFNα pSTAT4 (JAK1/TYK2) cellular assay, AlphaLISA in PBMCs; assay type: cell-based; conditions: PBMC, IFNα 4 ng/mL
Method: The AlphaLISA assay (based on Alpha Technology from PerkinElmer) was performed by first plating freshly thawed PBMCs (Biological Specialty Corporation) in 384-well plates at 100,000 cells per 6 μL per well in DMEM (Dulbecco's Modified Eagle Medium) containing 10% FBS (fetal bovine serum) and 1,000 I.U./mL penicillin and 1,000 μg/mL streptomycin. The cells were then treated with 2 μL/well of compounds diluted in DMSO at half-log titrated concentrations, with a highest test concentration of 10 μM and 0.5% final DMSO concentration, for thirty minutes at 37° C. Next, the cells were stimulated with 2 μL/well of IFNα (PBL Assay Science Cat. No. 11101-2) at 4 ng/mL for thirty minutes at 37° C. The cellular reactions were terminated by the addition of 2 μL/well of lysis buffer (PerkinElmer Cat. No. ALSU-PST4-A10K) followed by an incubation of five minutes at room temperature. 4 μL/well of acceptor mix (PerkinElmer Cat. No. ALSU-PST4-A10K) was added to the cells and incubated in the dark for one hour at room temperature. Then, 4 μL/well of donor mix (PerkinElmer Cat. No. ALSU-PST4-A10K) was added to the cells and incubated in the dark overnight at room temperature. Finally, the plates were read on a PerkinElmer EnVision for detection of the time-resolved fluorescence signal. The percentage of IFNα-dependent pSTAT4 inhibition was determined at the compound test concentrations; and for each compound, a dose curve was generated and the IC50 was calculated. Compound IC50 was calculated by nonlinear regression, sigmoidal dose response analysis of the half-log dilution titration curve of the compound concentration vs. Alpha signal. The term “Alpha” is defined in the immediately preceding cellular assay description.

[3] = pH 6.5
[4] = MDCK-MDR1, pH 7.4, @ 5 μM, without elacridar, read-out: MDCK-MDR1 Papp(A-B)
[5] = MDCK-MDR1, pH 7.4, with elacridar 2 μM, @ 5 μM, with P-gp inhibitor elacridar (2 μM), read-out: MDCK-MDR1 P^eapp(A-B)

| Plasma Concentration After p.o. Dosing, Mean ([1]; Time = 0.5 h) [ng/mL] | Plasma Concentration After p.o. Dosing, Mean ([1]; Time = 2 h) [ng/mL] | Colon Concentration After p.o. Dosing, Mean ([1]; Time = 4 h) [ng/g] | Plasma Concentration After p.o. Dosing, Mean ([1]; Time = 4 h) [ng/mL] | Papp A→B [2] [×10⁻⁶ cm/s] | Papp A→B at 60 min, 5 μM (P-gp (MDR1); [4]) [×10⁻⁶ cm/s] | Papp B→A at 60 min, 5 μM (P-gp (MDR1); @ 5 μM) [×10⁻⁶ cm/s] | efflux ratio at 60 min, 5 μM (P-gp (MDR1)) | solubility (physchem; pH 6.5, fassif) [µM] | solubility (physchem; simulated gastric fluid) [µM] | SMILES | IC50 (JAK1-JH1JH2) [nM] | IC50 (JAK3-JH1JH2) [nM] | IC50 (Tyk2-JH1JH2) [nM] | IC50 (IL-2 pSTAT5 (JAK1/JAK3)) [nM] | IC50 (IFNα pSTAT4 (JAK1/TYK2)) [nM] | Papp A→B at 60 min, 5 μM (P-gp (MDR1); [5]) [×10⁻⁶ cm/s] | SIF solubility [3] [µM] |
| --- | --- | --- | --- | --- | --- | --- | --- | --- | --- | --- | --- | --- | --- | --- | --- | --- | --- |
| 347.0 | 69.1 | 895.0 | 84.5 | 22 | 1.3 | 55.3 | 43 | > 400 | > 400 | Cc1nc2cnc3[nH]ccc3c2n1[C@H]1CC[C@H](CC#N)CC1 [A] | – | – | – | – | – | – | – |
| 352.7 | 66.3 | 6076.7 | 11.3 | 1.7 | 0.4 | 23.5 | 59 | 75 (≈ 23.2 µg/mL) | > 400 | N#CC[C@H]1CC[C@H](n2c(CO)nc3cnc4[nH]ccc4c32)CC1 [B] | – | – | – | – | – | – | – |
| – | – | – | – | – | – | – | – | – | – | Cn1cc(NC(=O)Cc2nc3cnc4[nH]ccc4c3n2[C@H]2CC[C@H](CC#N)CC2)cn1 [Ex. 9, 2-(1-((1r,4r)-4-(Cyanomethyl)cyclohexyl)-1,6-dihydroimidazo[4,5-d]pyrrolo[2,3-b]pyridin-2-yl)-N-(1-methyl-1H-pyrazol-4-yl)acetamide] | 0.2 | 79.9 | 4.7 | 11.2 | 35.9 | 0.6 | >400 |
| – | – | – | – | – | – | – | – | – | – | N#CC[C@H]1CC[C@H](n2c(CC(=O)Nc3cc[nH]n3)nc3cnc4[nH]ccc4c32)CC1 [Ex. 11, 2-(1-((1r,4r)-4-(Cyanomethyl)cyclohexyl)-1,6-dihydroimidazo[4,5-d]pyrrolo[2,3-b]pyridin-2-yl)-N-(1H-pyrazol-3-yl)acetamide] | 0.4 | 30.3 | 1.5 | 49.1 | 96.5 | 0.8 | >400 |
